Patent US6291470A, “Indole derivatives process for producing the same and medicinal uses of the same” (Toray Industries, Inc., priority 1992, dated 2001)

Tests used:
[1] = target: T1, δ-opioid receptor (Mus musculus, UniProt P32300); assay: δ-opioid antagonist activity against DPDPE in mouse vas deferens (MVD); settings: 20 min; for Ratio of IC50 Values: DPDPE IC50 with/without 100 nM test compound; for Kb: against DPDPE, test compound 100 nM, read-out: Ke
T1 construct: from tissue; host or cells: vas deferens of male ddy mice
T1 sequence (P32300 whole entry): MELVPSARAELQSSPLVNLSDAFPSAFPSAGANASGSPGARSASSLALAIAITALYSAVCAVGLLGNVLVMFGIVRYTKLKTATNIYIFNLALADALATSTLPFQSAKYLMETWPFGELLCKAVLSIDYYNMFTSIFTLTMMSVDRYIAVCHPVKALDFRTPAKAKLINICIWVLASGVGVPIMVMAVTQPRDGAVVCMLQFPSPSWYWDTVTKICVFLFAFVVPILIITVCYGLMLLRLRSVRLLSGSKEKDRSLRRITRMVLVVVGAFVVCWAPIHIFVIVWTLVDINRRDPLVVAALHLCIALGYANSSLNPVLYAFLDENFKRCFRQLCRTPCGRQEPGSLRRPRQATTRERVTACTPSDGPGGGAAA
Method: Using mouse vas deferens (MVD), the antagonist activity against DPDPE which is a δ-opioid agonist was checked.
(§1) In this experiment, ddy male mice were used. In a Magnus' tube which is filled with Krebes-Henseleit solution (NaCl […]; KCl 4.7 mM; CaCl2 2.5 mM; KH2 PO4 1.1 mM; NaHCO3 25 mM; glucose 11 mM) kept at 37° C., and into which an atmosphere consisting of 5% carbon dioxide and 95% oxygen was flown, vas deferens taken from the animals was suspended. Electric stimulation was applied through ring-shaped platinum electrodes mounted on the upper and lower portions of the tube at a frequency of 0.1 Hz and 5.0 mS duration. The contraction of the tissue was recorded on polygraph using isometric transducer.
(§2) Then 100 nM of the test compound was added. Twenty minutes later, DPDPE was begun to be added cumulatively. The ratio of IC50 values in the presence and absence of the test compound, Ke value (the molar concentration of the test compound necessary for translating the dose-effect curve to the curve of twice dose) and pA2 value were determined. The pA2 value was determined by the method of Shild et al (Shild, H. O., Br. J. Pharmac. Chamotehr., 4, 277 (1949)). That is, the logarithm of the test compound (log[test compound]) was plotted along the abscissa and the logarithm of the value obtained by subtracting 1 from the ratio of IC50 values was plotted in the presence and absence of the test compound [log(dose ratio-1)] along the ordinate. The pA2 value was determined from the value on the abscissa when the value on the ordinate of the obtained line is 0.

[2] = target: T2, κ-opioid receptor (Cavia porcellus, UniProt P41144); assay: κ-opioid antagonist activity against U-50488H in guinea pig ileum (GPI); settings: 20 min; for Ratio of IC50 Values: U-50488H IC50 with/without 100 nM test compound; for Kb: against U-50488H, test compound 100 nM, read-out: Ke
T2 construct: from tissue; host or cells: ileum longitudinal muscle of male Hartley guinea pigs
T2 sequence (P41144 whole entry): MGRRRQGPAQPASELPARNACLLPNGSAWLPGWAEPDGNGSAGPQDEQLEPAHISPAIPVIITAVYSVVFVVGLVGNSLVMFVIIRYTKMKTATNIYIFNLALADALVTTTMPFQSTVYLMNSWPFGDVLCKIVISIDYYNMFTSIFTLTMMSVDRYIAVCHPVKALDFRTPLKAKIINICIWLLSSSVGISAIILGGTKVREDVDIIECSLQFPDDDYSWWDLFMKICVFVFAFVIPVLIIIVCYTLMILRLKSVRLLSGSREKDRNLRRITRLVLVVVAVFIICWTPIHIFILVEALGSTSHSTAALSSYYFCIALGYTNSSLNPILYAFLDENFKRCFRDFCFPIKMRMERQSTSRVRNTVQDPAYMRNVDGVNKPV
Method: Using guinea pig ileum (GPI), antagonist activities against U-50488H which is a κ-opioid agonist was determined.
Hartley male guinea pigs were used. After killing the guinea pigs by clubbing, ilea were taken. The inside of the ilea was washed with a nutrient liquid and only longitudinal muscles were peeled off. Using the thus obtained longitudinal muscles, the tests were carried out using the same apparatus as used in the experiment employing MVD.
First, U-50488H which is a κ-agonist was cumulatively added and IC50 value was determined. Thereafter, the muscle was well washed with the nutrient liquid. After the contraction reaction became stable, 100 nM of a test compound was added. From 20 minutes after, U-50488H was cumulatively added and the ratio of IC50 values, Ke value and pA2 value were determined in the same manner as in the experiment employing MVD.

[3] = system: Cerebral cortex nerve cells; assay: Brain cell-protecting action, MTT method; format: cell-based, rat; settings: 10 μM; for brain cell-protecting action (in words): MTT; for Ratio of Absorbances: study group / control group, 570 nm, 3 days culture; for brain cell-protecting activity relative to nor-BNI (in words): vs nor-BNI
Method: The brain cell-protecting action was examined by MTT [3-(4,5-dimethylthiazol-2-yl)-2,5-diphenyltetrazolium bromide] method. MTT yields a dark blue formazan compound by mitochondria in living cells. This compound was dissolved in isopropanol and absorbance at 570 nm was measured, thereby measuring the number of living cells.
Cerebral cortex nerve cells of fetal rats of 17 days old were placed in wells of a 96-well plate at a population density of 1×10^5 cells/cm^2. Then 10 μM of a test compound was added and the cells were cultured in 200 μl of mixed medium of D-MEM/F.12 (1:1) for 3 days (37° C., 5%CO2). In a control group, the medium alone was added Then […] of MTT solution in PBS (6mg/ml) was added and the mixture was allowed to react for 3 hours (37° C., 5% CO2). After removing the culture medium, 100 μl of isopropanol was added and the absorbance was measured.
The ratio of the absorbances of the study group and the control group was employed as an index of brain cell-protecting action.

[4] = target: T1, δ-opioid receptor; assay: Change in δ-antagonist activity against DPDPE with time in mouse vas deferens (MVD); settings: for Ratio of IC50 Values / Kb: 173 and NTI at 20 nM, 174 and 5'-NTII at 100 nM; for Kb: read-out: Ke; for change of antagonist activity with time (in words): 15 min to 1 hour; for activity at 1 hour relative to 5'-NTII: vs 5'-NTII
Method: as §1, §2
Using MVD, the antagonist activities of compounds 173 and 174 against DPDPE were determined. The ratio of IC50 values, Ke values and pA2 values at 15 minutes, 30 minutes and 1 hour from the addition of the test compounds were calculated. Since the concentrations of the test compounds are different, the reciprocals of Ke values were plotted in FIGS. 1 and 2.

[5] = system: delayed type hypersensitivity; assay: Mouse Delayed Type Hypersensitivity Reaction Suppression Test-2 (donor spleen cells, subcutaneous administration); format: in vivo; settings: C57BL/6 spleen cells; subcutaneous everyday from day of sensitization, totally 8 days; BALB/c
Description: BALB/c mice (male, 7 weeks old) were used, and each group consisted of 4-5 mice. Spleen cells (1×10^7 ) obtained from a donor mouse (C57BL/6) was subcutaneously administered to sensitize the mice. On Day 7 from the sensitization, the spleen cells (5×10^6) of the donor were subcutaneously administered on the right hing leg and spleen cells (5×10^6) obtained from a mouse of the same line as the recipient mice were subcutaneously administered on the left footpad. Twenty four hours later, the thicknesses of the right and left footpads were measured with a dial thickness gage, and the difference in thicknesses of the right and left footpads before the induction of the reaction and 24 hours after the induction of the reaction was employed as the index of the degree of the reaction.
The test compound was dissolved in 10% DMSO-water and was subcutaneously administered everyday from the day of sensitization to the day of induction of the reaction, totally 8 days. In the control group, 10% DMSO-water alone was administered in the same manner. The volume of administration was 10 ml/kg in both study groups and in the control group. Delayed Type Hypersensitivity Reaction=(thickness of right foodpad after induction-thickness of right footpad before induction)-(thickness of […] before induction) [formula]
wherein C means delayed type hypersensitivity reaction of the group to which the test compound was administered and D means the delayed type hypersensitivity reaction of the group to which vehicle was administered.

`CN(C)Cc1ccc2[nH]c3c(c2c1)C[C@@]1(O)[C@H]2Cc4ccc(O)c5c4[C@@]1(CCN2CC1CC1)[C@H]3O5` [Compound 10, 17-cyclopropylmethyl-6,7-didehydro-4,5α-epoxy-3,14β-dihydroxy-5'-(N,N-dimethylamino)methyl-6,7-2',3'-indolomorphinan] was tested, and the “Ratio of IC50 Values” [1] was 11.4, the Kb [1] was 9.62 nM and the “Ratio of IC50 Values” [2] was 19.4. For the same molecule, the Kb [2] was 9.67 nM, the “brain cell-protecting action (in words)” value [3] was “Clear activities” and the “Ratio of Absorbances” value [3] was 7.58.

In the case of `CN(C)CCc1ccc2[nH]c3c(c2c1)C[C@@]1(O)[C@H]2Cc4ccc(O)c5c4[C@@]1(CCN2CC1CC1)[C@H]3O5` [Compound 9, 17-cyclopropylmethyl-6,7-didehydro-4,5α-epoxy-3,14-dihydroxy-5'-[2-(N,N-dimethylamino)ethyl]-6,7-2',3'-indolomorphinan], the “Ratio of IC50 Values” [1] was 25.6, the Kb [1] was 4.07 nM and the “Ratio of IC50 Values” [2] was 99.0. For the same molecule, the Kb [2] was 4.07 nM, the “brain cell-protecting action (in words)” value [3] was “Clear activities” and the “Ratio of Absorbances” value [3] was 8.27. For the same molecule, the “brain cell-protecting activity relative to nor-BNI (in words)” value [3] was “higher than that of nor-BNI”.

`Oc1ccc2c3c1O[C@H]1c4[nH]c5cc(N=C=S)ccc5c4C[C@@]4(O)[C@@H](C2)N(CC2CC2)CC[C@]314` [Compound 174, 17-cyclopropylmethyl-6,7-didehydro-4,5α-epoxy-3,14β-dihydroxy-6'-isothiocyanato-6,7-2',3'-indolomorphinan] was tested, and the “Ratio of IC50 Values” ([4]; 15 min) was 25.7, the Kb ([4]; 15 min) was 4.05 nM and the “change of antagonist activity with time (in words)” value [4] was “increased with time”. For the same molecule, the “Ratio of IC50 Values” ([4]; 30 min) was 47.6, the Kb ([4]; 30 min) was 2.15 nM and the “Ratio of IC50 Values” ([4]; 60 min) was 58.6. The Kb ([4]; 60 min) was 1.74 nM and the “activity at 1 hour relative to 5'-NTII” value ([4]; 1 hour) was “about 7 times”.

`O=S(=O)(NCC1CC1)c1ccc2c3c([nH]c2c1)[C@@H]1Oc2c(O)ccc4c2[C@@]12CCN(CC1CC1)[C@H](C4)[C@]2(O)C3` [Compound 45, 17-cyclopropylmethyl-6,7-didehydro-4,5α-epoxy-3,14β-dihydroxy-6'-(N-cyclopropylmethylsulfamoyl)-6,7-2',3'-indolomorphinan] was tested, and the “Ratio of IC50 Values” [1] was 7.44, the Kb [1] was 15.5 nM and the “Ratio of IC50 Values” [2] was 3.22. It also gave a Kb [2] of 45.1 nM.

`C[S+]([O-])c1cccc2c3c([nH]c12)[C@@H]1Oc2c(O)ccc4c2[C@@]12CCN(CC1CC1)[C@H](C4)[C@]2(O)C3` (single isomer, unassigned) [Compound 591, 17-cyclopropylmethyl-6,7-didehydro-4,5α-epoxy-3,14β-dihydroxy-7'-methylsulfinyl-6,7-2',3'-indolomorphinan] was tested, and the “% Suppression” value [5] was 16%.

With `O=C(NCC1CC1)c1ccc2c3c([nH]c2c1)[C@@H]1Oc2c(O)ccc4c2[C@@]12CCN(CC1CC1)[C@H](C4)[C@]2(O)C3` [Compound 47, 17-cyclopropylmethyl-6,7-didehydro-4,5α-epoxy-3,14β-dihydroxy-6'-(N-cyclopropylmethylcarbamoyl)-6,7-2',3'-indolomorphinan] the “Ratio of IC50 Values” [1] was 13.0, the Kb [1] was 8.33 nM and the “Ratio of IC50 Values” [2] was 3.11. It also gave a Kb [2] of 47.4 nM.

For `O=C(NCC1CC1)c1ccc2[nH]c3c(c2c1)C[C@@]1(O)[C@H]2Cc4ccc(O)c5c4[C@@]1(CCN2CC1CC1)[C@H]3O5` [Compound 7, 17-cyclopropylmethyl-6,7-didehydro-4,5α-epoxy-3,14β-dihydroxy-5'-(N-cyclopropylmethylcarbamoyl)-6,7-2',3'-indolomorphinan], the “Ratio of IC50 Values” [1] was 33.2, the Kb [1] was 3.11 nM and the “Ratio of IC50 Values” [2] was 22.8. For the same molecule, the Kb [2] was 4.59 nM, the “brain cell-protecting action (in words)” value [3] was “Clear activities” and the “Ratio of Absorbances” value [3] was 5.31.

In the case of `Oc1ccc2c3c1O[C@H]1c4[nH]c5c(N=C=S)cccc5c4C[C@@]4(O)[C@@H](C2)N(CC2CC2)CC[C@]314` [Compound 173, 17-cyclopropylmethyl-6,7-didehydro-4,5α-epoxy-3,14β-dihydroxy-7'-isothiocyanato-6,7-2',3'-indolomorphinan], the “Ratio of IC50 Values” ([4]; 15 min) was 105, the Kb ([4]; 15 min) was 0.19 nM and the “change of antagonist activity with time (in words)” value [4] was “increased with time”. The “Ratio of IC50 Values” ([4]; 30 min) was 253, the Kb ([4]; 30 min) was 0.08 nM and the “Ratio of IC50 Values” ([4]; 60 min) was 306. For the same molecule, the Kb ([4]; 60 min) was 0.07 nM, the “activity at 1 hour relative to 5'-NTII” value ([4]; 1 hour) was “about 170 times” and the “activity at 1 hour relative to NTI” value ([4]; 1 hour, vs NTI) was “about 3.5 times”. The “activity relative to compound 174 (in words)” value ([4]; vs compound 174) was “inferior to that of compound 174”.

`Oc1ccc2c3c1O[C@H]1c4[nH]c5ccc(CNCC6CC6)cc5c4C[C@@]4(O)[C@@H](C2)N(CC2CC2)CC[C@]314` [Compound 180, 17-cyclopropylmethyl-6,7-didehydro-4,5α-epoxy-3,14β-dihydroxy-5'-(N-cyclopropylmethylamino)methyl-6,7-2',3'-indolomorphinan] was tested, and the “Ratio of IC50 Values” [1] was 15.2, the Kb [1] was 7.04 nM and the “brain cell-protecting action (in words)” value [3] was “Clear activities”. For the same molecule, the “Ratio of Absorbances” value [3] was 8.73 and the “brain cell-protecting activity relative to nor-BNI (in words)” value [3] was “higher than that of nor-BNI”.
